The NIST ThermoML archive (doi:10.1021/je700260f)

Conditions: Liquid, Vibrating tube method

FC(C(F)(F)F)C(F)(F)F [1,1,1,2,3,3,3-heptafluoropropane]
Conditions | mass density [kg/m3]
313.15 K, 33848 kPa | 1503.2
313.15 K, 33888 kPa | 1503.3
313.15 K, 33928 kPa | 1503.5
313.15 K, 33981 kPa | 1503.8
313.15 K, 34027 kPa | 1503.8
313.15 K, 34060 kPa | 1503.9
313.15 K, 34100 kPa | 1504
313.15 K, 34136 kPa | 1504.1
313.15 K, 34171 kPa | 1504.4
313.15 K, 34201 kPa | 1504.5
313.15 K, 34232 kPa | 1504.6
313.15 K, 34269 kPa | 1504.6
313.15 K, 34305 kPa | 1504.8
313.15 K, 34336 kPa | 1504.7
313.15 K, 34374 kPa | 1505
313.15 K, 34408 kPa | 1505.1
313.15 K, 34430 kPa | 1505.2
313.15 K, 34451 kPa | 1505.2
313.15 K, 34461 kPa | 1505.2
313.15 K, 34473 kPa | 1505.2
313.15 K, 34482 kPa | 1505.4
313.15 K, 34489 kPa | 1505.4
313.16 K, 1420 kPa | 1328.8
313.16 K, 1448 kPa | 1329.3
313.16 K, 9648 kPa | 1395.4
313.16 K, 9676 kPa | 1395.6
313.16 K, 9701 kPa | 1395.7
313.16 K, 9733 kPa | 1395.9
313.16 K, 9768 kPa | 1396.1
313.16 K, 9796 kPa | 1396.4
313.16 K, 10034 kPa | 1397.9
313.16 K, 11599 kPa | 1407.5
313.16 K, 11650 kPa | 1407.8
313.16 K, 16202 kPa | 1432.4
313.16 K, 16267 kPa | 1432.9
313.16 K, 16535 kPa | 1434.1
313.16 K, 16676 kPa | 1434.8
313.16 K, 16775 kPa | 1435.3
313.16 K, 21124 kPa | 1455.4
313.16 K, 21173 kPa | 1455.5
313.16 K, 23260 kPa | 1464.4
313.16 K, 23309 kPa | 1464.6
313.16 K, 23346 kPa | 1464.7
313.16 K, 25084 kPa | 1471.9
313.16 K, 25125 kPa | 1471.9
313.16 K, 25173 kPa | 1472.1
323.13 K, 960 kPa | 1272.4
323.13 K, 990 kPa | 1272.7
323.13 K, 1310 kPa | 1277.3
323.13 K, 1540 kPa | 1280.5
323.13 K, 1600 kPa | 1281.2
323.13 K, 1800 kPa | 1283.9
323.13 K, 1820 kPa | 1284.2
323.13 K, 1840 kPa | 1284.5
323.13 K, 2040 kPa | 1287.1
323.13 K, 2060 kPa | 1287.3
323.13 K, 2080 kPa | 1287.6
323.13 K, 2100 kPa | 1287.9
323.13 K, 2120 kPa | 1288.2
323.13 K, 2140 kPa | 1288.3
323.13 K, 2160 kPa | 1288.7
323.13 K, 2180 kPa | 1288.9
323.13 K, 2190 kPa | 1289.2
323.13 K, 2220 kPa | 1289.2
323.13 K, 2230 kPa | 1289.4
323.13 K, 2250 kPa | 1289.8
323.13 K, 2270 kPa | 1290
323.13 K, 3000 kPa | 1298.9
323.13 K, 3030 kPa | 1299.3
323.13 K, 3090 kPa | 1299.8
323.13 K, 3110 kPa | 1300.2
323.13 K, 3130 kPa | 1300.3
323.13 K, 3150 kPa | 1300.6
323.13 K, 3180 kPa | 1300.8
323.13 K, 3200 kPa | 1301.3
323.13 K, 3230 kPa | 1301.4
323.13 K, 3250 kPa | 1301.7
323.13 K, 3270 kPa | 1301.9
323.13 K, 3290 kPa | 1302.2
323.13 K, 4770 kPa | 1317.9
323.13 K, 4790 kPa | 1318.1
323.13 K, 4820 kPa | 1318.3
323.13 K, 4850 kPa | 1318.7
323.13 K, 4880 kPa | 1318.9
323.13 K, 4900 kPa | 1319.2
323.13 K, 4920 kPa | 1319.4
323.13 K, 6440 kPa | 1333.7
323.13 K, 6489 kPa | 1334.1
323.13 K, 6508 kPa | 1334
323.13 K, 6533 kPa | 1334.5
323.13 K, 6605 kPa | 1335.1
323.13 K, 6623 kPa | 1335.3
323.13 K, 6650 kPa | 1335.4
323.13 K, 6668 kPa | 1335.7
323.13 K, 6696 kPa | 1335.8
323.13 K, 6716 kPa | 1336
323.13 K, 6734 kPa | 1336.3
323.13 K, 6759 kPa | 1336.4
323.13 K, 7026 kPa | 1338.8
323.14 K, 920 kPa | 1271.8
323.14 K, 940 kPa | 1272.1
323.14 K, 1020 kPa | 1273.1
323.14 K, 1040 kPa | 1273.4
323.14 K, 1060 kPa | 1273.7
323.14 K, 1070 kPa | 1274.1
323.14 K, 1090 kPa | 1274.2
323.14 K, 1110 kPa | 1274.5
323.14 K, 1130 kPa | 1274.7
323.14 K, 1140 kPa | 1275.1
323.14 K, 1170 kPa | 1275.4
323.14 K, 1180 kPa | 1275.5
323.14 K, 1200 kPa | 1275.9
323.14 K, 1220 kPa | 1276
323.14 K, 1240 kPa | 1276.4
323.14 K, 1260 kPa | 1276.7
323.14 K, 1290 kPa | 1276.9
323.14 K, 1330 kPa | 1277.6
323.14 K, 1350 kPa | 1277.8
323.14 K, 1370 kPa | 1278.2
323.14 K, 1390 kPa | 1278.3
323.14 K, 1410 kPa | 1278.7
323.14 K, 1420 kPa | 1278.8
323.14 K, 1450 kPa | 1279.2
323.14 K, 1470 kPa | 1279.6
323.14 K, 1500 kPa | 1279.9
323.14 K, 1520 kPa | 1280.1
323.14 K, 1550 kPa | 1280.6
323.14 K, 1580 kPa | 1281.1
323.14 K, 1610 kPa | 1281.4
323.14 K, 1630 kPa | 1281.6
323.14 K, 1640 kPa | 1282
323.14 K, 1670 kPa | 1282.1
323.14 K, 1690 kPa | 1282.5
323.14 K, 1710 kPa | 1282.7
323.14 K, 1730 kPa | 1283.1
323.14 K, 1750 kPa | 1283.3
323.14 K, 1780 kPa | 1283.7
323.14 K, 1860 kPa | 1284.7
323.14 K, 1880 kPa | 1285
323.14 K, 1900 kPa | 1285.3
323.14 K, 1920 kPa | 1285.4
323.14 K, 1940 kPa | 1285.8
323.14 K, 1960 kPa | 1285.9
323.14 K, 1980 kPa | 1286.3
323.14 K, 2000 kPa | 1286.6
323.14 K, 2020 kPa | 1286.8
323.14 K, 2290 kPa | 1290.2
323.14 K, 2310 kPa | 1290.6
323.14 K, 2330 kPa | 1290.7
323.14 K, 2350 kPa | 1291
323.14 K, 2380 kPa | 1291.3
323.14 K, 2390 kPa | 1291.5
323.14 K, 2410 kPa | 1291.7
323.14 K, 2430 kPa | 1291.9
323.14 K, 2450 kPa | 1292.3
323.14 K, 2480 kPa | 1292.4
323.14 K, 2500 kPa | 1292.9
323.14 K, 2530 kPa | 1293.2
323.14 K, 2560 kPa | 1293.6
323.14 K, 2570 kPa | 1293.8
323.14 K, 2600 kPa | 1294
323.14 K, 2610 kPa | 1294.3
323.14 K, 2630 kPa | 1294.4
323.14 K, 2650 kPa | 1294.8
323.14 K, 2670 kPa | 1295
323.14 K, 2830 kPa | 1296.9
323.14 K, 2890 kPa | 1297.6
323.14 K, 2920 kPa | 1297.7
323.14 K, 2940 kPa | 1298.3
323.14 K, 2960 kPa | 1298.4
323.14 K, 2980 kPa | 1298.6
323.14 K, 3060 kPa | 1299.4
323.14 K, 3310 kPa | 1302.4
323.14 K, 3340 kPa | 1302.7
323.14 K, 3360 kPa | 1303
323.14 K, 3380 kPa | 1303.3
323.14 K, 3410 kPa | 1303.5
323.14 K, 3440 kPa | 1303.9
323.14 K, 3470 kPa | 1304.1
323.14 K, 3480 kPa | 1304.3
323.14 K, 3510 kPa | 1304.5
323.14 K, 3530 kPa | 1304.8
323.14 K, 3550 kPa | 1305
323.14 K, 3570 kPa | 1305.4
323.14 K, 3600 kPa | 1305.5
323.14 K, 3640 kPa | 1306.1
323.14 K, 3660 kPa | 1306.3
323.14 K, 3680 kPa | 1306.5
323.14 K, 3700 kPa | 1306.7
323.14 K, 3720 kPa | 1307
323.14 K, 3750 kPa | 1307.2
323.14 K, 3770 kPa | 1307.5
323.14 K, 3790 kPa | 1307.7
323.14 K, 3810 kPa | 1308
323.14 K, 3840 kPa | 1308.2
323.14 K, 3860 kPa | 1308.5
323.14 K, 3880 kPa | 1308.7
323.14 K, 3900 kPa | 1309
323.14 K, 3920 kPa | 1309.1
323.14 K, 3950 kPa | 1309.4
323.14 K, 3970 kPa | 1309.8
323.14 K, 4000 kPa | 1309.9
323.14 K, 4020 kPa | 1310.2
323.14 K, 4040 kPa | 1310.3
323.14 K, 4070 kPa | 1310.7
